Measured values as given in PubChem BioAssay (NCI).
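Five compound concentrations were applied to cells in 96-well plates for 48 hours; endpoints were derived by simple linear interpolation of the resulting dose-response curve. TGI marks complete inhibition of growth.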

How the values were obtained:
Assay in all cases: NCI anticancer screen, dose series, 48 h
[1] = system: MALME-3M melanoma
[2] = system: UACC-257 melanoma
[3] = system: K-562 leukemia
[4] = system: HCT-116 colon
[5] = system: NCI-H226 lung
[6] = system: OVCAR-8 ovarian
[7] = system: SF-539 CNS
[8] = system: UO-31 renal
[9] = system: A549 NSCLC
[10] = system: SK-MEL-2 melanoma
[11] = system: HL-60(TB) leukemia
[12] = system: OVCAR-4 ovarian
[13] = system: TK-10 renal
[14] = system: BT-549 breast
[15] = system: SW-620 colon
[16] = system: PC-3 prostate
[17] = system: CCRF-CEM leukemia
[18] = system: KM12 colon
[19] = system: MDA-MB-231 breast
[20] = system: NCI-H23 lung
[21] = system: MOLT-4 leukemia
[22] = system: OVCAR-5 ovarian
[23] = system: CAKI-1 renal
[24] = system: RPMI-8226 leukemia
[25] = system: SN12C renal
[26] = system: U251 CNS
[27] = system: HCT-15 colon
[28] = system: DU-145 prostate
[29] = system: MDA-MB-435
[30] = system: SK-MEL-5 melanoma
[31] = system: SF-295 CNS
[32] = system: HCC-2998 colon
[33] = system: LOX IMVI melanoma
[34] = system: NCI-H522 lung
[35] = system: COLO 205 colon
[36] = system: IGROV1 ovarian
[37] = system: RXF 393 renal
[38] = system: OVCAR-3 ovarian
[39] = system: SR leukemia
[40] = system: HOP-62 NSCLC
[41] = system: ACHN renal
[42] = system: HOP-92 NSCLC
[43] = system: HS 578T breast
[44] = system: MDA-N
[45] = system: SK-MEL-28 melanoma
[46] = system: HT29 colon
[47] = system: SNB-19 CNS
[48] = system: NCI/ADR-RES ovarian
[49] = system: UACC-62 melanoma
[50] = system: T-47D breast
[51] = system: NCI-H460 lung
[52] = system: 786-0 renal
[53] = system: SF-268 CNS
[54] = system: M14 melanoma
[55] = system: SK-OV-3 ovarian
[56] = system: EKVX NSCLC
[57] = system: MCF7 breast
[58] = system: SNB-75 CNS
[59] = system: A498 renal

CCN(CC)CCn1c(=O)c2ccccc2n2c3c(=O)n(C)c(=O)n(C)c3nc12
TGI [1]: 10.6 µM
TGI [2]: 16.7 µM
TGI [3]: 19.4 µM
TGI [4]: 8.71 µM
TGI [5]: 3.35 µM
TGI [6]: 8.06 µM
TGI [7]: 2.95 µM
TGI [8]: 6.29 µM
TGI [9]: 2.05 µM
TGI [10]: 6.61 µM
TGI [11]: 2.5 µM
TGI [12]: 23.5 µM
TGI [13]: 52.5 µM
TGI [14]: 4.22 µM
TGI [15]: 16.1 µM
TGI [16]: 20.4 µM
TGI [17]: 13.1 µM
TGI [18]: 6.03 µM
TGI [19]: 19.3 µM
TGI [20]: 10.1 µM
TGI [21]: 4.73 µM
TGI [22]: 7.09 µM
TGI [23]: 3.91 µM
TGI [24]: 5.94 µM
TGI [25]: 10.2 µM
TGI [26]: 6.03 µM
TGI [27]: 66.2 µM
TGI [28]: 4.47 µM
TGI [29]: 15.9 µM
TGI [30]: 2.94 µM
TGI [31]: 10.1 µM
TGI [32]: 6.8 µM
TGI [33]: 31.3 µM
TGI [34]: 9 µM
TGI [35]: 14.5 µM
TGI [36]: 23.3 µM
TGI [37]: 34.4 µM
TGI [38]: 16.4 µM
TGI [39]: 5.15 µM
TGI [40]: 4.62 µM
TGI [41]: 1.09 µM
TGI [42]: 7.85 µM
TGI [43]: 19.6 µM
TGI [44]: 17.6 µM
TGI [45]: 18.3 µM
TGI [46]: 9.55 µM
TGI [47]: 38.1 µM
TGI [48]: 30.2 µM
TGI [49]: 3.22 µM
TGI [50]: 20.8 µM
TGI [51]: 1.65 µM
TGI [52]: 5.43 µM
TGI [53]: 12.1 µM
TGI [54]: 13 µM
TGI [55]: 4.77 µM
TGI [56]: 11.7 µM
TGI [57]: 6.2 µM
TGI [58]: 7.46 µM

CNc1ccc(S(=O)Nc2ccc(OC)cc2)cc1 (stereo not given)
TGI [1]: > 100 µM
TGI [2]: > 100 µM
TGI [3]: > 100 µM
TGI [4]: > 100 µM
TGI [5]: > 100 µM
TGI [6]: > 100 µM
TGI [7]: > 100 µM
TGI [59]: > 100 µM
TGI [8]: 34.8 µM
TGI [9]: > 100 µM
TGI [11]: > 100 µM
TGI [12]: > 100 µM
TGI [13]: > 100 µM
TGI [14]: > 100 µM
TGI [15]: > 100 µM
TGI [16]: > 100 µM
TGI [17]: > 100 µM
TGI [18]: 22.2 µM
TGI [19]: > 100 µM
TGI [20]: > 100 µM
TGI [21]: > 100 µM
TGI [23]: > 100 µM
TGI [24]: > 100 µM
TGI [25]: > 100 µM
TGI [26]: > 100 µM
TGI [27]: > 100 µM
TGI [28]: > 100 µM
TGI [29]: 70.1 µM
TGI [30]: > 100 µM
TGI [31]: > 100 µM
TGI [32]: > 100 µM
TGI [33]: > 100 µM
TGI [34]: > 100 µM
TGI [35]: 91.4 µM
TGI [36]: > 100 µM
TGI [38]: > 100 µM
TGI [39]: > 100 µM
TGI [40]: > 100 µM
TGI [41]: > 100 µM
TGI [42]: > 100 µM
TGI [43]: > 100 µM
TGI [44]: > 100 µM
TGI [45]: > 100 µM
TGI [46]: > 100 µM
TGI [47]: > 100 µM
TGI [48]: > 100 µM
TGI [50]: > 100 µM
TGI [51]: > 100 µM
TGI [52]: > 100 µM
TGI [53]: > 100 µM
TGI [54]: > 100 µM
TGI [55]: > 100 µM
TGI [56]: > 100 µM
TGI [57]: > 100 µM

Cn1c2ccccc2c(=NNc2ccc(S(N)(=O)=O)cc2)c2ccccc21
TGI [1]: 43.2 µM
TGI [2]: 49.8 µM
TGI [3]: 40.4 µM
TGI [4]: > 50 µM
TGI [5]: 48.4 µM
TGI [6]: > 50 µM
TGI [7]: > 50 µM
TGI [8]: 41.1 µM
TGI [9]: > 50 µM
TGI [10]: 34.3 µM
TGI [11]: 32 µM
TGI [12]: > 50 µM
TGI [13]: > 50 µM
TGI [14]: > 50 µM
TGI [15]: > 50 µM
TGI [16]: > 50 µM
TGI [17]: > 50 µM
TGI [18]: > 50 µM
TGI [19]: > 50 µM
TGI [20]: > 50 µM
TGI [21]: 26.9 µM
TGI [22]: > 50 µM
TGI [23]: > 50 µM
TGI [24]: > 50 µM
TGI [25]: > 50 µM
TGI [26]: > 50 µM
TGI [27]: > 50 µM
TGI [28]: > 50 µM
TGI [29]: > 50 µM
TGI [30]: 22.5 µM
TGI [31]: > 50 µM
TGI [32]: 38.7 µM
TGI [33]: 38.1 µM
TGI [34]: > 50 µM
TGI [35]: > 50 µM
TGI [36]: > 50 µM
TGI [37]: 43.7 µM
TGI [38]: > 50 µM
TGI [39]: 25.6 µM
TGI [40]: > 50 µM
TGI [41]: 29 µM
TGI [42]: 35.8 µM
TGI [43]: > 50 µM
TGI [44]: > 50 µM
TGI [45]: > 50 µM
TGI [46]: > 50 µM
TGI [47]: > 50 µM
TGI [48]: > 50 µM
TGI [49]: > 50 µM
TGI [50]: 34.8 µM
TGI [51]: 34.3 µM
TGI [52]: > 50 µM
TGI [53]: > 50 µM
TGI [54]: > 50 µM
TGI [55]: > 50 µM
TGI [56]: > 50 µM
TGI [57]: 43.1 µM
TGI [58]: 46.6 µM
